Laboratory results reported in patent US20100298141A1, “SUBSTITUTED PYRIDINE N-OXIDE HERBICIDES” (E. I. DU PONT DE NEMOURS AND COMPANY, priority 2007, published 2010).

Key:
[1] = tested on: giant foxtail; assay: Test A pre-/postemergence greenhouse test; type: in vivo, Setaria faberi; details: for Plant response rating, Foxtail, Giant: 0 to 100 scale where 0 is no effect and 100 is complete control; for Foxtail, Giant plant response rating: 0 to 100 scale
How it was run: (§1)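 Herbicidal effect is a visual injury score given about ten days post-treatment by comparison with untreated controls. Preemergence plots received a directed spray onto sown loam–sand soil; postemergence plants, at the one- to two-leaf stage and 2–10 cm tall, were sprayed at the same time.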

[2] = tested on: velvetleaf; assay: Test A pre-/postemergence greenhouse test; type: in vivo, Abutilon theophrasti; details: for Velvetleaf plant response rating: 0 to 100 scale
How it was run: as §1

[3] = tested on: wheat; assay: Test A pre-/postemergence greenhouse test; type: in vivo, Triticum aestivum; details: for Wheat plant response rating: 0 to 100 scale
How it was run: as §1

[4] = tested on: corn; assay: Test A pre-/postemergence greenhouse test; type: in vivo, Zea mays; details: for Plant response rating, Corn: 0 to 100 scale where 0 is no effect and 100 is complete control; for Corn plant response rating: 0 to 100 scale
How it was run: as §1

[5] = tested on: downy brome; assay: Test C pre-/postemergence test; type: in vivo, Bromus tectorum; details: preemergence, scale 0 (no effect) to 100 (complete control)
How it was run: (§2)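 Test chemicals were formulated with surfactant in a non-phytotoxic solvent and sprayed both on freshly planted seeds (preemergence) and on 1- to 4-leaf plants of 2–18 cm (postemergence). Flooded-paddy pots received compound directly into 3 cm of standing water, maintained for the test.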

[6] = tested on: catchweed bedstraw; assay: Test C pre-/postemergence test; type: in vivo, Galium aparine
How it was run: as §2

[7] = tested on: bermudagrass; assay: Test C pre-/postemergence test; type: in vivo, Cynodon dactylon
How it was run: as §2

[8] = tested on: Surinam grass; assay: Test C pre-/postemergence test; type: in vivo, Brachiaria decumbens
How it was run: as §2

[9] = tested on: crabgrass; assay: Test C pre-/postemergence test; type: in vivo, Digitaria sanguinalis
How it was run: as §2

[10] = tested on: giant foxtail; assay: Test C pre-/postemergence test; type: in vivo, Setaria faberii
How it was run: as §2

[11] = tested on: johnsongrass; assay: Test C pre-/postemergence test; type: in vivo, Sorghum halepense
How it was run: as §2

[12] = tested on: lambsquarters; assay: Test C pre-/postemergence test; type: in vivo, Chenopodium album
How it was run: as §2

[13] = tested on: morningglory; assay: Test C pre-/postemergence test; type: in vivo, Ipomoea coccinea
How it was run: as §2

[14] = tested on: pigweed; assay: Test C pre-/postemergence test; type: in vivo, Amaranthus retroflexus
How it was run: as §2

[15] = tested on: soybean; assay: Test C pre-/postemergence test; type: in vivo, Glycine max
How it was run: as §2

[16] = tested on: rice; assay: Test C flooded paddy test; type: in vivo, Oryza sativa; details: Flood
How it was run: (§3)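 Compound was added to standing water 3 cm above soil, flood maintained, and plants held in a greenhouse before visual scoring against controls at 13 to 15 days.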

[17] = tested on: barnyardgrass; assay: Test C flooded paddy test; type: in vivo, Echinochloa crus-galli; details: Flood
How it was run: as §3

[18] = Postemergence, 500 g ai/ha, 0 is no effect, 100 is complete control
[19] = Preemergence, 125 g ai/ha, 0 no effect, 100 complete control
[20] = Postemergence, 125 g ai/ha, 0 to 100 scale where 0 is no effect and 100 is complete control
[21] = Preemergence, 500 g ai/ha, 0 no effect, 100 complete control
[22] = 62 g ai/ha, Preemergence, scale 0 to 100
[23] = 125 g ai/ha, preemergence, scale 0 (no effect) to 100 (complete control)
[24] = Preemergence, 31 g ai/ha, scale 0 to 100 (0 no effect, 100 complete control)
[25] = preemergence, 250 g ai/ha, scale 0 (no effect) to 100 (complete control)
[26] = 31 g ai/ha, scale 0 to 100 (0 no effect, 100 complete control)
[27] = 62 g ai/ha, scale 0 to 100 (0 no effect, 100 complete control)
[28] = 125 g ai/ha, scale 0 to 100, 0 no effect, 100 complete control, 13 to 15 days
[29] = 250 g ai/ha, scale 0 to 100, 0 no effect, 100 complete control, 13 to 15 days

Cn1nc(C(F)(F)F)c(C[S+]([O-])c2ccc(Cl)c[n+]2[O-])c1OCC(F)F (centres unmarked) [Compound 85]
Plant response rating, Foxtail, Giant ([1]; Postemergence, 125 g ai/ha): 90 | Foxtail, Giant plant response rating [1, 18]: 90 | Foxtail, Giant plant response rating [1, 19]: 100 | Plant response rating, Foxtail, Giant ([1]; Preemergence, 500 g ai/ha): 100 | Plant response rating, Velvetleaf [2, 20]: 50 | Velvetleaf plant response rating [2, 18]: 90 | Velvetleaf plant response rating [2, 19]: 50 | Velvetleaf plant response rating [2, 21]: 100 | Plant response rating, Wheat [3, 20]: 60 | Wheat plant response rating [3, 18]: 70 | Wheat plant response rating [3, 19]: 70 | Wheat plant response rating [3, 21]: 90 | Plant response rating, Corn ([4]; Postemergence, 125 g ai/ha): 0 | Corn plant response rating [4, 18]: 60 | Corn plant response rating [4, 19]: 0 | Plant response rating, Corn ([4]; Preemergence, 500 g ai/ha): 80 | Bromegrass, Downy plant response rating ([5]; 125 g ai/ha): 70 | Bromegrass, Downy plant response rating ([5]; 250 g ai/ha): 100 | Galium plant response rating [6, 22]: 100 | Galium plant response rating [6, 23]: 100 | Plant response rating, Galium [6, 24]: 98 | Galium plant response rating [6, 25]: 100 | Bermudagrass plant response rating ([7]; 62 g ai/ha, Preemergence, scale 0 to 100 (0 no effect, 100 complete control)): 100 | Bermudagrass plant response rating [7, 23]: 100 | Plant response rating, Bermudagrass [7, 24]: 90 | Bermudagrass plant response rating [7, 25]: 100 | Surinam Grass plant response rating [8, 22]: 95 | Surinam Grass plant response rating [8, 23]: 100 | Plant response rating, Surinam Grass [8, 24]: 85 | Surinam Grass plant response rating [8, 25]: 100 | Crabgrass, Large plant response rating [9, 22]: 85 | Plant response rating, Crabgrass, Large [9, 24]: 80 | Crabgrass, Large plant response rating [9, 25]: 100 | Foxtail, Giant plant response rating [10, 22]: 100 | Plant response rating, Foxtail, Giant [10, 24]: 85 | Foxtail, Giant plant response rating [10, 25]: 100 | Johnsongrass plant response rating [11, 22]: 85 | Johnsongrass plant response rating [11, 23]: 100 | Plant response rating, Johnsongrass [11, 24]: 85 | Johnsongrass plant response rating [11, 25]: 100 | Lambsquarters plant response rating [12, 22]: 100 | Lambsquarters plant response rating [12, 23]: 100 | Plant response rating, Lambsquarters [12, 24]: 100 | Lambsquarters plant response rating [12, 25]: 100 | Morningglory plant response rating [13, 22]: 90 | Morningglory plant response rating [13, 23]: 90 | Morningglory plant response rating [13, 25]: 100 | Pigweed plant response rating [14, 22]: 100 | Pigweed plant response rating [14, 23]: 100 | Plant response rating, Pigweed [14, 24]: 100 | Pigweed plant response rating [14, 25]: 100 | Soybean plant response rating [15, 22]: 100 | Plant response rating, Soybean [15, 24]: 100 | Soybean plant response rating [15, 25]: 100 | Plant response rating, Rice [16, 26]: 0 | Plant response rating, Rice [16, 27]: 0 | Plant response rating, Rice [16, 28]: 30 | Plant response rating, Rice [16, 29]: 50 | Plant response rating, Barnyardgrass [17, 26]: 0 | Plant response rating, Barnyardgrass [17, 27]: 0 | Plant response rating, Barnyardgrass [17, 28]: 25 | Plant response rating, Barnyardgrass [17, 29]: 70
